Patent US8436031B2 (priority 2004, dated 2013)

Tests used:
SoxS = SoxS (Escherichia coli, UniProt P0A9E2); assay: Chemiluminescence DNA binding assay, SoxS; design: species or system E. coli; settings: for EC50 for SoxS compared with ARD: relative to ARD; for EC50: E. coli SoxS, DNA binding
MarA [1] = molecular target: T1, MarA (Escherichia coli, UniProt P0ACH5); assay: Chemiluminescence DNA binding assay, MarA; settings: E. coli MarA
Target sequence in this assay (P0ACH5 whole entry): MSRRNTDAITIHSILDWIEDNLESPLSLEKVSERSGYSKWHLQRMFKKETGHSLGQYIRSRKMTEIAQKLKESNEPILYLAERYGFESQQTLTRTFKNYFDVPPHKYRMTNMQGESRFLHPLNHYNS

Rob = Rob (Escherichia coli, UniProt P0ACI0); assay: Chemiluminescence DNA binding assay, Rob; settings: E. coli Rob
Chain of Rob (P0ACI0 whole entry): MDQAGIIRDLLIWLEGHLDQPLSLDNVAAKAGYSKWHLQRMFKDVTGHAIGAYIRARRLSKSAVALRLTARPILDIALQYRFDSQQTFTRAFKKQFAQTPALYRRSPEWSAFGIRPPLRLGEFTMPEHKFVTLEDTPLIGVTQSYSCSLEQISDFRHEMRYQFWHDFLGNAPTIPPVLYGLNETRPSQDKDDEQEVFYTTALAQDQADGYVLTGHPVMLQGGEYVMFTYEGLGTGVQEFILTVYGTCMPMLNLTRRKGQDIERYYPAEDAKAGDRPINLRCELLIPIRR

Rma = Rma (Salmonella typhimurium, UniProt H9L484); assay: Chemiluminescence DNA binding assay, Rma; design: species or system S. typhimurium
Chain of Rma (H9L484 whole entry): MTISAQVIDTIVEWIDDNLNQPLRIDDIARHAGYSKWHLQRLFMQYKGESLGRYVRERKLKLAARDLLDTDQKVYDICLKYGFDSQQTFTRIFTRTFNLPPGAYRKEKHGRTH

SlyA = SlyA (Salmonella typhimurium, UniProt P40676); assay: Chemiluminescence DNA binding assay, SlyA (MarR protein control); design: species or system S. typhimurium
Chain of SlyA (P40676 whole entry): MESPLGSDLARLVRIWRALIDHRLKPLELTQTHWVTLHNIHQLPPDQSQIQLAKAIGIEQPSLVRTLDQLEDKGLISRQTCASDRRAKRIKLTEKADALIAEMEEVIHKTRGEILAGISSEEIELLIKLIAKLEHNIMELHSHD

PqrA = PqrA (Proteus mirabilis, UniProt B4ETM4); assay: Chemiluminescence DNA binding assay, PqrA; settings: P. mirabilis PqrA
Chain of PqrA (B4ETM4 entry or part of it): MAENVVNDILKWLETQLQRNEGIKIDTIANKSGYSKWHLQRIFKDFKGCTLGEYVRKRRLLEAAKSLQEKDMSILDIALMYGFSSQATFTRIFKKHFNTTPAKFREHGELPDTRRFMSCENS

ExsA = ExsA (Pseudomonas aeruginosa, UniProt P26993); assay: Chemiluminescence DNA binding assay, ExsA; design: species or system P. aeruginosa
Chain of ExsA (P26993 whole entry): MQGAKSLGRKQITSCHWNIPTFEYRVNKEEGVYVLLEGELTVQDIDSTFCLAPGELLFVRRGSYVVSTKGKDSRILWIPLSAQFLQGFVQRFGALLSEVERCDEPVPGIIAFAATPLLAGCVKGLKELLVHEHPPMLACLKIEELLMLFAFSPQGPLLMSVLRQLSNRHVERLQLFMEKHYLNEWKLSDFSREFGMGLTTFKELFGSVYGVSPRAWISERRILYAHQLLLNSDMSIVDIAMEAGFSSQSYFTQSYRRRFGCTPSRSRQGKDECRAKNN

LcrF (VirF) = LcrF (VirF) (Yersinia pseudotuberculosis, UniProt Q663J0); assay: biochemical; format: binding, Y. pseudotuberculosis
Chain of LcrF (VirF) (Q663J0 1-271): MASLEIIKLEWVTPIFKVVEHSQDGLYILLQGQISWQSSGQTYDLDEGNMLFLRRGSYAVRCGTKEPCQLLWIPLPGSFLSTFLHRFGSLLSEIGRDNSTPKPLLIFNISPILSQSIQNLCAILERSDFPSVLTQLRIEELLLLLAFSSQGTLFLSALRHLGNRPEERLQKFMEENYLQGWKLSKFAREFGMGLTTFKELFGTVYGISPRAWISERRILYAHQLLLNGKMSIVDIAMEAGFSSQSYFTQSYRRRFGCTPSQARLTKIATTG

[2] = In vivo toxicity, repeat dose experiments; settings: mice; subcutaneous 25 mg/Kg, two doses on day 1, single dose on days 2-5
Experimental: The in vivo toxicity of Mar inhibitors ATB, BAB, BAF, BBP and BBS were investigated in repeat dose experiments. Mice were given two subcutaneous doses (25 mg/Kg) of a Mar inhibitor on day 1 and a single dose of the compound on days 2-5.

MarA [3] = molecular target: T1, MarA; assay: Selective marker (ccdB) under MarA-activated promoter; cell survival under MarA expression (Example 2); format: cell-based; design: key: *: good inhibition of MarA; **: very good inhibition of MarA; settings: inhibition of MarA; cell survival under conditions of MarA expression
Excerpt: In this example, the expression of a selective marker (e.g., ccdB) is put under the direct control of a promoter activated by MarA (e.g., inaA, galT, or micF). In the absence of MarA, the expression of the selective marker is silent and cells survive. Synthesis of MarA from an inducible plasmid in a bacterial or yeast cell leads to the activation of the inaA promoter, expression of ccdB, and subsequently results in cell death. Compounds that inhibit MarA are those that permit cell survival under conditions of MarA expression. In Table 4, * indicates good inhibition of MarA and ** indicates very good inhibition of MarA.
Target sequence in this assay (P0ACH5 whole entry, looked up): as the sequence (P0ACH5 whole entry) above

Chain of SoxS (P0A9E2 whole entry): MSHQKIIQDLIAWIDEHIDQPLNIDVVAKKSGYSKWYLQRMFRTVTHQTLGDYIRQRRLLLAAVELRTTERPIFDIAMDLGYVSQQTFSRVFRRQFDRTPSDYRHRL

## COc1cccc(-c2nc3ccc([N+](=O)[O-])cc3n2O)c1 [ANU]
SoxS
  EC50 for SoxS compared with ARD: higher than that of ARD

## O=[N+]([O-])c1ccc2nc(-c3ccoc3)n(O)c2c1 [AOW]
SoxS
  EC50 for SoxS compared with ARD: higher than that of ARD

## O=[N+]([O-])c1ccc2nc(-c3ccco3)n(O)c2c1 [AOX]
SoxS
  EC50 for SoxS compared with ARD: higher than that of ARD

## NC(=O)c1ccc2nc(-c3ccccc3)n(O)c2c1 [APJ]
SoxS
  EC50 for SoxS compared with ARD: higher than that of ARD

## O=C(Nc1ccc(-c2nc3ccc([N+](=O)[O-])cc3n2O)cc1)c1ccccc1 [AQQ]
SoxS
  EC50 for SoxS compared with ARD: higher than that of ARD

## O=[N+](O)c1cccc2c1nc(-c1ccco1)n2O [AQV]
SoxS
  EC50 for SoxS compared with ARD: higher than that of ARD

## CN(C)c1ccc(-c2nc3ccc([N+](=O)[O-])cc3n2O)cc1 [ARB]
SoxS
  EC50 for SoxS compared with ARD: higher than that of ARD

## O=[N+]([O-])c1ccc2nc(-c3ccc(-c4ccccc4)o3)n(O)c2c1 [ARD]
MarA [1]
  EC50: 11.7 µM
SoxS
  EC50: 8.3 µM
Rob
  EC50: 28 µM
Rma
  EC50: 17 µM
SlyA
  EC50: 11.9 µM
PqrA
  EC50: 13.6 µM
ExsA
  EC50: 15.6 µM

## COc1ccc(C(=O)Nc2ccc(-c3nc4ccc([N+](=O)[O-])cc4n3O)cc2)cc1 [ASR]
LcrF (VirF)
  EC50: 18.3 µM

## O=C(NCc1ccc(-c2nc3ccc([N+](=O)[O-])cc3n2O)cc1)c1ccccc1 [ASS]
SoxS
  EC50 for SoxS compared with ARD: higher than that of ARD

## O=C(Nc1ccc(-c2nc3ccc([N+](=O)[O-])cc3n2O)cc1)c1ccc(Cl)cc1 [AST]
SoxS
  EC50 for SoxS compared with ARD: higher than that of ARD

## O=C(Nc1ccc(-c2nc3ccc([N+](=O)[O-])cc3n2O)cc1)c1ccc(F)cc1 [ASU]
SoxS
  EC50: 3 µM
Rob
  EC50: 4.7 µM
Rma
  EC50: 4.9 µM
SlyA
  EC50: 51 µM
ExsA
  EC50: 4 µM
LcrF (VirF)
  EC50: 17.7 µM

## O=C(Nc1ccc(-c2nc3ccc([N+](=O)[O-])cc3n2O)cc1)c1cccc(Cl)c1 [ASX]
SoxS
  EC50: 4.9 µM
Rob
  EC50: 3.4 µM
Rma
  EC50: 3.5 µM
SlyA
  EC50: 21.7 µM
ExsA
  EC50: 2.5 µM

## Cc1ccc(C(=O)Nc2ccc(-c3nc4ccc([N+](=O)[O-])cc4n3O)cc2)cc1 [ATB]
SoxS
  EC50: 2.7 µM
Rob
  EC50: 7.4 µM
ExsA
  EC50: 4 µM
LcrF (VirF)
  EC50: 15.5 µM
[2]
  in vivo toxicity: No overt signs of toxicity

## CN(C)c1ccc(C(=O)Nc2ccc(-c3nc4ccc([N+](=O)[O-])cc4n3O)cc2)cc1 [ATE]
MarA [1]
  EC50: 1.2 µM
SoxS
  EC50: 0.82 µM
Rob
  EC50: 1.3 µM
Rma
  EC50: 1.8 µM
SlyA
  EC50: 14.3 µM
PqrA
  EC50: 1.4 µM
ExsA
  EC50: 1.9 µM
LcrF (VirF)
  EC50: 36.5 µM

## N#Cc1ccc(C(=O)Nc2ccc(-c3nc4ccc([N+](=O)[O-])cc4n3O)cc2)cc1 [BAB]
[2]
  in vivo toxicity: No overt signs of toxicity

## CC(=O)c1ccc(C(=O)Nc2ccc(-c3nc4ccc([N+](=O)[O-])cc4n3O)cc2)cc1 [BAF]
[2]
  in vivo toxicity: No overt signs of toxicity

## O=C(/C=C/c1ccc(F)cc1)Nc1ccc(-c2nc3ccc([N+](=O)[O-])cc3n2O)cc1 [BBP]
LcrF (VirF)
  EC50: 7.1 µM
[2]
  in vivo toxicity: No overt signs of toxicity

## O=C(Nc1ccc(-c2nc3ccc([N+](=O)[O-])cc3n2O)cc1)c1cccc(F)c1 [BBS]
LcrF (VirF)
  EC50: 29 µM
[2]
  in vivo toxicity: No overt signs of toxicity

## Cc1cccc(C(=O)Nc2ccc(-c3nc4ccc([N+](=O)[O-])cc4n3O)cc2)c1 [BBT]
LcrF (VirF)
  EC50: 27.5 µM

## Cc1ccccc1C(=O)Nc1ccc(-c2nc3ccc([N+](=O)[O-])cc3n2O)cc1 [BBV]
LcrF (VirF)
  EC50: > 57.9 µM

## O=C(Nc1ccc(-c2nc3ccc([N+](=O)[O-])cc3n2O)cc1)c1ccccc1F [BBW]
LcrF (VirF)
  EC50: > 57.3 µM

## Cc1ccc(/C=C/C(=O)Nc2ccc(-c3nc4ccc([N+](=O)[O-])cc4n3O)cc2)cc1 [BCK]
LcrF (VirF)
  EC50: 0.8 µM

## COc1ccc(/C=C/C(=O)Nc2ccc(-c3nc4ccc([N+](=O)[O-])cc4n3O)cc2)cc1 [BCL]
LcrF (VirF)
  EC50: 5.1 µM

## O=C(/C=C/c1ccc(F)cc1F)Nc1ccc(-c2nc3ccc([N+](=O)[O-])cc3n2O)cc1 [BCO]
LcrF (VirF)
  EC50: 2.2 µM

## CCOC(=O)C1=C(C)N=c2s/c(=C\c3ccc(-c4cccc(C(=O)O)c4)o3)c(=O)n2C1c1ccc(N(C)C)cc1 (centres unmarked) [W, 2-[5-(3-Carboxy-phenyl)-furan-2-ylmethylene]-5-(4-dimethylamino-phenyl)-7-methyl-3-oxo-2,3-dihydro-5H-thiazolo[3,2-a]pyrimidine-6-carboxylic acid ethyl ester]
MarA [3]
  MarA inhibition score (cell survival): **

## CCOC(=O)C1=C(C)N=c2s/c(=C/c3ccc(-c4ccc(C)c([N+](=O)[O-])c4)o3)c(=O)n2C1c1ccc(N(C)C)cc1 (centres unmarked) [X, 5-(4-Dimethylamino-phenyl)-7-methyl-2-[5-(4-methyl-3-nitro-phenyl)-furan-2-ylmethylene]-3-oxo-2,3-dihydro-5H-thiazolo[3,2-a]pyrimidine-6-carboxylic acid ethyl ester]
MarA [3]
  MarA inhibition score (cell survival): **

## O=C1C=Cc2ccccc2/C1=N\Oc1ccc2noc3c2c1C(=O)c1ccccc1-3 [Z, [1,2]Naphthoquinone 1-[O-(6-oxo-6H-anthra[1,9-cd]isoxazol-5-yl)-oxime]]
MarA [3]
  MarA inhibition score (cell survival): *
